Experimental findings from patent US20020022059A1, “Water treatment process” (priority 1996, published 2002) are described below.

Data set [1] has as its system algae bloom. The experiment in a line: Application of algicide-flocculant treatment against an algae bloom in a South Texas water plant. The following applies: clarifier.
The conditions of data set [2]: pH 7, or more alkaline water.
From the text: Since the incoming raw water most often has a pH of 7 or above, this causes the crystals to acquire a coating of copper hydroxide that inhibits dissolution of the blue vitriol crystals into the water.

For the compound `O.O.O.O.O.O=S(=O)([O-])[O-].[Cu+2]` [blue vitriol crystals, cupric sulfate pentahydrate], the “outcome of algae bloom” value in data set [1] is reported as “had battled an algae bloom”. Moreover, the dissolution in water entry in data set [2] is listed as “do not dissolve very well”.
